These results are taken from patent US20260217706A1, “HETEROCYCLIC COMPOUNDS, PREPARATION METHOD THEREFOR AND USE THEREOF” (GUANGZHOU YUFAN NANTU BIOTECHNOLOGIES CO., LTD, priority 2023, published 2026).

Chain of CBL-B protein (Q13191 whole entry): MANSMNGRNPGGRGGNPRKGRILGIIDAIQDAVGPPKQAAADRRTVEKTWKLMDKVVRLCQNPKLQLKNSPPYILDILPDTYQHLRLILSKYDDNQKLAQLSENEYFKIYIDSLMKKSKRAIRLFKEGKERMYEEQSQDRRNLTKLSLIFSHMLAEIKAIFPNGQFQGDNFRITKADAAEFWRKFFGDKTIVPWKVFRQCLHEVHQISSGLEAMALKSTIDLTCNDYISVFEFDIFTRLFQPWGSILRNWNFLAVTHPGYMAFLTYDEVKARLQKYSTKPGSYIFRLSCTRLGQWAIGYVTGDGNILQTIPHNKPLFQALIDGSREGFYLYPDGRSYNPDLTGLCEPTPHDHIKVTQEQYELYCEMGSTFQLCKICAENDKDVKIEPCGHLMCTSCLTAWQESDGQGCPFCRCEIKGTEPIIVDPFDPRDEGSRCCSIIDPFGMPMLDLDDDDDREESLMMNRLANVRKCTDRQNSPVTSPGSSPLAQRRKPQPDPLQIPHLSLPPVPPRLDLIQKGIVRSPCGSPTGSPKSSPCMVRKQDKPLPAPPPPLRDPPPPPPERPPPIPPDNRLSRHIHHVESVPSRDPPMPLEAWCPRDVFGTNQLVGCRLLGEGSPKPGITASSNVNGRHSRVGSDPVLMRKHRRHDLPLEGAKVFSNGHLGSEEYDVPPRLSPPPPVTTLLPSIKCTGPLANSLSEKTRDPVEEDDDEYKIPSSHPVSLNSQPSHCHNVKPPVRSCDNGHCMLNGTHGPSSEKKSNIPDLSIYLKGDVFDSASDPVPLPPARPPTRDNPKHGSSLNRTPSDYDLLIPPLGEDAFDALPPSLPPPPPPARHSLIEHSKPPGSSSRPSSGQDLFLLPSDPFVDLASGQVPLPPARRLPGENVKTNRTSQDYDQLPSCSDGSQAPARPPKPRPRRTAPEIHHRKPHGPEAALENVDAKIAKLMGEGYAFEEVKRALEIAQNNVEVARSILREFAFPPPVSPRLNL

The first assay concerns the target CBL-B protein (Homo sapiens, UniProt Q13191). Put plainly: CBL-B binding experiment (Streptavidin-Tb cryptate / Ligand L1 displacement). As to conditions: 8 nM CBL-B protein, 25° C., 60 minutes; Ki=Relative IC50/2. In outline:
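Compounds in a 10-point DMSO series met 8 nM CBL-B protein in HEPES pH 7.5/NaCl/Triton/TCEP/BSA buffer at 25° C. for 60 min. A further 60 min at room temperature preceded the luminescence read, normalised to no-protein and DMSO wells. Ki was taken as relative IC50 divided by 2.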
The Ki is the equilibrium dissociation constant of an inhibitor or competing ligand from its target. High values mean a looser hold on the target, low ones a stronger hold on the target. `Cn1cnnc1C1(c2cccc(-n3cc(C(F)(F)F)c4cc(CN5CCCC(C(F)F)C5)[nH]c4c3=O)c2)CCC1` (racemic) [Compound T114, 6-[3-[1-(4-methyl-1,2,4-triazol-3-yl)cyclobutyl]phenyl]-2-[[rac-(3S)-3-(difluoromethyl)-1-piperidyl]methyl]-4-(trifluoromethyl)-1H-pyrrolo[2,3-c]pyridin-7-one] gave a Ki of under 50 nM. On to `C[C@H]1CCCN(Cc2cc(C(F)(F)F)c3cn(-c4cccc([C@]5(c6nncn6C)C[C@@H](C)C5)c4)c(=O)n3c2)C1` (racemic) [Compound T140, 2-(3-((1s,3R)-3-methyl-1-(4-methyl-4H-1,2,4-triazol-3-yl)cyclobutyl)phenyl)-6-(((S)-3-methylpiperidin-1-yl)methy 1)-8-(trifluoromethyl)imidazo[1,5-a]pyridin-3(2H)-one], for which the Ki is under 50 nM.

As for `CO[C@H]1C[C@](c2cccc(-n3cc(C(F)(F)F)c4cc(CN5CC6CCC(C6)C5)[nH]c4c3=O)c2)(c2nncn2C)C1` [Compound T146, 2-((3-azabicyclo[3.2.1]octan-3-yl)methyl)-6-(3-((1r,3r)-3-methoxy-1-(4-methyl-4H-1,2,4-triazol-3-yl)cyclobutyl)phenyl)-4-(trifluoromethyl)-1,6-dihydro-7H-pyrrolo[2,3-c]pyridin-7-one], the Ki is under 50 nM.

With `CO[C@H]1C[C@](c2cccc(-n3cc(C(F)(F)F)c4cc(CN5CCCC6(CC6)C5)[nH]c4c3=O)c2)(c2nncn2C)C1` [Compound T148, 2-((5-azaspiro[2.5]octan-5-yl)methyl)-6-(3-((1r,3r)-3-methoxy-1-(4-methyl-4H-1,2,4-triazol-3-yl)cyclobutyl)phenyl)-4-(trifluoromethyl)-1,6-dihydro-7H-pyrrolo[2,3-c]pyridin-7-one], the Ki was under 50 nM.

The compound `CCN(Cc1cc2c(C(F)(F)F)cn(-c3cccc([C@]4(c5nncn5C)C[C@H](OC)C4)c3)c(=O)c2[nH]1)CC(C)C` [Compound T150, 2-((ethyl(isobutyl)amino)methyl)-6-(3-((1r,3r)-3-methoxy-1-(4-methyl-4H-1,2,4-triazol-3-yl)cyclobutyl)phenyl)-4-(trifluoromethyl)-1,6-dihydro-7H-pyrrolo[2,3-c]pyridin-7-one] came in with a Ki of under 50 nM. Still for that read-out and setting: under `CO[C@H]1C[C@@](c2cccc(-n3cc(C(F)(F)F)c4cc(CNCCC5CC5)[nH]c4c3=O)c2)(c2nncn2C)C1` [Compound T153, 2-(((2-cyclopropylethyl)amino)methyl)-6-(3-((1s,3s)-3-methoxy-1-(4-methyl-4H-1,2,4-triazol-3-yl)cyclobutyl)phenyl)-4-(trifluoromethyl)-1,6-dihydro-7H-pyrrolo[2,3-c]pyridin-7-one] stands under 50 nM; under `CO[C@H]1C[C@@](c2cccc(-n3cc(C(F)(F)F)c4cc(CN5CCCC(C(F)F)C5)[nH]c4c3=O)c2)(c2nncn2C)C1` (stereo partly shown) [Compound T155, 2-((3-(difluoromethyl)piperidin-1-yl)methyl)-6-(3-((1s,3s)-3-methoxy-1-(4-methyl-4H-1,2,4-triazol-3-yl)cyclobutyl)phenyl)-4-(trifluoromethyl)-1,6-dihydro-7H-pyrrolo[2,3-c]pyridin-7-one], under 50 nM; under `CCN(Cc1cc2c(C(F)(F)F)cn(-c3cccc([C@]4(c5nncn5C)C[C@H](OC)C4)c3)c(=O)c2[nH]1)C(C)C` [Compound T193], under 50 nM.

Another assay relates to anti-CD3 activated human PBMCs. Description: Effect of compounds on the level of IL-2 secretion by anti-CD3 activated human PBMCs (IL-2 ELISA). As to conditions: compound concentration at which fold change in IL-2 = 5; hPBMCs, CD3 antibody 2 μg/mL, 48 h, compound from 3 μM. It is filed as cell-based. On the procedure: 2. Inoculate the resuspended cells into a 96-well cell culture plate at 200 ul/well of cell suspension, and incubate in a 37° C. cell incubator for 1 h;
3. Adjust the compound concentration with DMSO, starting at a final concentration of 3 μM, and perform a 3-fold dilution sequentially for 10 concentration gradients, with an additional DMSO control well set up; and
4. Adjust the CD3 antibody to an appropriate concentration to achieve a final concentration of 2 μg/mL, mix thoroughly, and incubate in a 37° C. cell incubator for 48h.
5. After 48 h, centrifuge at 1500 rpm for 5 min to collect the supernatant of the culture medium for the human IL-2 ELISA test.
The OD values obtained from the ELISA test are converted into the fold change (FC) in IL-2 concentration. […] The EC50 is calculated using GraphPad Prism. When the fold change=5, the corresponding compound concentration is CFC=5 (in nM).
On the technique in general: ELISA stands for enzyme-linked immunosorbent assay.
With `Cn1cnnc1C1(c2cccc(-n3cc(C(F)(F)F)c4cc(CN5CCCC(C(F)F)C5)[nH]c4c3=O)c2)CCC1` (racemic) [Compound T114, 6-[3-[1-(4-methyl-1,2,4-triazol-3-yl)cyclobutyl]phenyl]-2-[[rac-(3S)-3-(difluoromethyl)-1-piperidyl]methyl]-4-(trifluoromethyl)-1H-pyrrolo[2,3-c]pyridin-7-one], the “IL-2 CFC=5/nM” value was under 500 nM. The same measure, in the same setting: under `C[C@H]1CCCN(Cc2cc(C(F)(F)F)c3cn(-c4cccc([C@]5(c6nncn6C)C[C@@H](C)C5)c4)c(=O)n3c2)C1` (racemic) [Compound T140, 2-(3-((1s,3R)-3-methyl-1-(4-methyl-4H-1,2,4-triazol-3-yl)cyclobutyl)phenyl)-6-(((S)-3-methylpiperidin-1-yl)methy 1)-8-(trifluoromethyl)imidazo[1,5-a]pyridin-3(2H)-one] stands under 500 nM; under `C[C@H]1CCCN(Cc2cc3c(C4CC4)cn(-c4cccc([C@]5(c6nncn6C)C[C@@H](C)C5)c4)c(=O)c3[nH]2)C1` [Compound T011, 4-cyclopropyl-6-(3-((1s,3R)-3-methyl-1-(4-methyl-4H-1,2,4-triazol-3-yl)cyclobutyl)phenyl)-2-(((S)-3-methylpiperidin-1-yl)methyl)-1,6-dihydro-7H-pyrrolo[2,3-c]pyridin-7-one], under 500 nM; under `C[C@H]1CCCN(Cc2cc3c(C4CC4)cn(-c4cccc([C@]5(c6nncn6C)C[C@H](C)C5)c4)c(=O)c3[nH]2)C1` [Compound T014, 4-cyclopropyl-6-(3-((1r,3S)-3-methyl-1-(4-methyl-4H-1,2,4-triazol-3-yl)cyclobutyl)phenyl)-2-(((S)-3-methylpiperidin-1-yl)methyl)-1,6-dihydro-7H-pyrrolo[2,3-c]pyridin-7-one], under 500 nM.

As for `Cn1cnnc1C1(c2cccc(-n3cc(C(F)(F)F)c4cc(CN5CC[C@H](F)C5)[nH]c4c3=O)c2)CCC1` [Compound T020, 2-[[(3S)-3-fluoropyrrolidin-1-yl]methyl]-6-[3-[1-(4-methyl-1,2,4-triazol-3-yl)cyclobutyl]phenyl]-4-(trifluoromethyl)-1H-pyrrolo[2,3-c]pyridin-7-one], the “IL-2 CFC=5/nM” value was under 500 nM. Still for that read-out and setting: next, `Cn1cnnc1C1(c2cccc(-n3cc(C(F)(F)F)c4cc(CN5CC[C@@H](F)C5)[nH]c4c3=O)c2)CCC1` [Compound T021, 2-[[(3R)-3-fluoropyrrolidin-1-yl]methyl]-6-[3-[1-(4-methyl-1,2,4-triazol-3-yl)cyclobutyl]phenyl]-4-(trifluoromethyl)-1H-pyrrolo[2,3-c]pyridin-7-one]: under 500 nM; `C[C@H]1CCCN(Cc2cc3c(C(F)(F)F)cn(-c4cccc([C@]5(c6nncn6C)C[C@H](C#N)C5)c4)c(=O)c3[nH]2)C1` [Compound T136, (1S,3r)-3-(4-methyl-4H-1,2,4-triazol-3-yl)-3-(3-(2-(((S)-3-methylpiperidin-1-yl)methyl)-7-oxo-4-(trifluoromethyl)-1,7-dihydro-6H-pyrrolo[2,3-c]pyridin-6-yl)phenyl)cyclobutane-1-carbonitrile]: under 500 nM; `C[C@H]1CCCN(Cc2cc3c(C(F)(F)F)cn(-c4cccc([C@]5(c6nncn6C)C[C@@H](C#N)C5)c4)c(=O)c3[nH]2)C1` [Compound T137, (1R,3s)-3-(4-methyl-4H-1,2,4-triazol-3-yl)-3-(3-(2-(((S)-3-methylpiperidin-1-yl)methyl)-7-oxo-4-(trifluoromethyl)-1,7-dihydro-6H-pyrrolo[2,3-c]pyridin-6-yl)phenyl)cyclobutane-1-carbonitrile]: under 500 nM. Still for that read-out and setting: next, `C[C@H]1CCCN(Cc2cc3c(C(F)(F)F)cn(-c4cccc([C@]5(c6nncn6C)C[C@@H](CC#N)C5)c4)c(=O)c3[nH]2)C1` [Compound T139, 2-((1R,3s)-3-(4-methyl-4H-1,2,4-triazol-3-yl)-3-(3-(2-(((S)-3-methylpiperidin-1-yl)methyl)-7-oxo-4-(trifluoromethyl)-1,7-dihydro-6H-pyrrolo[2,3-c]pyridin-6-yl)phenyl)cyclobutyl)acetonitrile]: under 500 nM. On the same count and under the same terms, under `CO[C@H]1C[C@@](c2cccc(-n3cc(C(F)(F)F)c4cc(CN5CCC[C@H]6C[C@H]65)[nH]c4c3=O)c2)(c2nncn2C)C1` [Compound T183] stands under 500 nM; under `CO[C@H]1C[C@](c2cccc(-n3cc(C(F)(F)F)c4cc(CN5CCC[C@H]6C[C@H]65)[nH]c4c3=O)c2)(c2nncn2C)C1` [Compound T185], under 500 nM.
